ChEMBL document CHEMBL5331124, “Degradation of Hexokinase 2 Blocks Glycolysis and Induces GSDME-Dependent Pyroptosis to Amplify Immunogenic Cell Death for Breast Cancer Therapy” (J Med Chem, 2023)
Active and inactive are the calls of the source. The calls are words filed in the database; no cut-off is given here.

How the values were obtained:
[1] = tested on: 4T1; test: Cytotoxicity against mouse 4T1 cells assessed as inhibition of cell growth at 1 to 100 uM incubated for 48 hrs by CCK-8 assay; format: functional, cell-based; settings: dose 1-100 µM
[2] = target: T1, Hexokinase-2 (Mus musculus) (UniProt O08528); test: Induction of HK2 degradation in mouse 4T1 cells measured for 36 hrs by confocal microscopic analysis; format: cell-based; settings: dose 2.0 µM
T1 sequence (whole entry): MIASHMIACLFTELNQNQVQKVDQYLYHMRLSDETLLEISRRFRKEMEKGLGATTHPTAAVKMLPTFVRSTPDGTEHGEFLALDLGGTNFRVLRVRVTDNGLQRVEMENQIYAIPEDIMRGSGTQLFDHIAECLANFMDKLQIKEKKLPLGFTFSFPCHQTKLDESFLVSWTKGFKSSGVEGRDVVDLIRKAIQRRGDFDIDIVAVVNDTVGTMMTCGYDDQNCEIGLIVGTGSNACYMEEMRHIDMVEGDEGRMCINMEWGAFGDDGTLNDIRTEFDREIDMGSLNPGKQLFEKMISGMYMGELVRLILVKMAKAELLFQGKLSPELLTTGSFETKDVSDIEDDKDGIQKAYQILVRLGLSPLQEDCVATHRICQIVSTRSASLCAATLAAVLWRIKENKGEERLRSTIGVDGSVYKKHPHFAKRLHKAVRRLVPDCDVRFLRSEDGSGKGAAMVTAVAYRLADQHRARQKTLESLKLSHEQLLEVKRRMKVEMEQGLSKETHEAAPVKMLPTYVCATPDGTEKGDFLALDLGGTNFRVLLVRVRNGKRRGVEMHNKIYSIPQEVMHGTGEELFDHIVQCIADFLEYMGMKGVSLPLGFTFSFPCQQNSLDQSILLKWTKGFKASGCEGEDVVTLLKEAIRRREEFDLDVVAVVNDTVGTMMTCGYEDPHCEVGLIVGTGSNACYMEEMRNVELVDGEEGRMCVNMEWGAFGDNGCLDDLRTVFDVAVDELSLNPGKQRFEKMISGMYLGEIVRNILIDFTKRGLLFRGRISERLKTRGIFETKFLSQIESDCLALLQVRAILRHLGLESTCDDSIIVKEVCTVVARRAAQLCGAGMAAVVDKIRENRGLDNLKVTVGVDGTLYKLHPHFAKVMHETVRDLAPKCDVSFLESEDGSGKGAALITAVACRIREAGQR

[3] = target: T2, Hexokinase-2 (Homo sapiens) (UniProt P52789); test: Induction of HK2 degradation in human MDA-MB-231 cells measured for 36 hrs by confocal microscopic analysis; format: cell-based; settings: dose 2.0 µM
T2 sequence (whole entry): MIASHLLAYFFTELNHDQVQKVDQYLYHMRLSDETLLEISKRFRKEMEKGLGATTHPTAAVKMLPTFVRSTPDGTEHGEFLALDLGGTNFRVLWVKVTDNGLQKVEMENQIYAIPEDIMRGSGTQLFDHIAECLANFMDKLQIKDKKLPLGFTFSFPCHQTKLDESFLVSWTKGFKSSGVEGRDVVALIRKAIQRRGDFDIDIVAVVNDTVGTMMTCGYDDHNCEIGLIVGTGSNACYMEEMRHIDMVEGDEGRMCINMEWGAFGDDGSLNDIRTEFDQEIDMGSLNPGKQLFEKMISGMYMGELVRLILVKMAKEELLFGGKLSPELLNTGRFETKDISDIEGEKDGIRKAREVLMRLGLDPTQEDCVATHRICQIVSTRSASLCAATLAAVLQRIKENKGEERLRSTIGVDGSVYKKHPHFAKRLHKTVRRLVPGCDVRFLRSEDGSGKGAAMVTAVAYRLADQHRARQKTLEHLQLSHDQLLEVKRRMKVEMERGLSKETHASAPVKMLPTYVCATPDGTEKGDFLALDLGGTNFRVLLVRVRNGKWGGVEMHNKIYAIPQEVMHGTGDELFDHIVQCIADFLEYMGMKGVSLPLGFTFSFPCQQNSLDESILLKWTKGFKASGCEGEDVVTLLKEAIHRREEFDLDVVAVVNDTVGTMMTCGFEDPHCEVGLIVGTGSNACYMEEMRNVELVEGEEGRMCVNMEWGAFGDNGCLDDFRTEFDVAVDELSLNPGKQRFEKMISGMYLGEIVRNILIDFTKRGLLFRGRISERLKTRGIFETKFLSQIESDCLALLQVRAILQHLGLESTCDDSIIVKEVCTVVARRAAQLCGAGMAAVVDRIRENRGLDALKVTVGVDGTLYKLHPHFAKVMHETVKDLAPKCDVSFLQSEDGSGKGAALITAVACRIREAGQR

[4] = tested on: 4T1; test: Inhibition of glycolysis in mouse 4T1 cells assessed as reduction in extracellular acidification rate at 20 uM incubated for 1 to 4 hrs by seahorse analyzer method; format: functional, cell-based; settings: time 1-4 hrs
[5] = tested on: 4T1; test: Induction of mitochondrial damage in mouse 4T1 cells assessed as increase in ROS generation at 20 uM measured for 36 hrs by Hoechst 33342 staining based confocal fluorescence microscopic analysis; format: functional, cell-based
[6] = tested on: 4T1; test: Induction of mitochondrial damage in mouse 4T1 cells assessed as reduction in lactic acid production at 20 uM measured for 36 hrs; format: functional, cell-based
[7] = tested on: 4T1; test: Induction of pyroptosis in mouse 4T1 cells assessed as […] in cleaved caspase-3 level at 20 uM incubated for 36 hrs; format: functional, cell-based
[8] = tested on: 4T1; test: Antitumor immunity against mouse 4T1 cells implanted in BALB/c mouse model assessed as increase in HMGB1 release in cell supernatant at 20 uM measured for 36 hrs by ELISA analysis; format: functional, cell-based
[9] = Toxicity in BALB/c mouse implanted with mouse 4T1 cells assessed as pathological changes in kidney at 50 mg/kg, ip measured after 25 days by Hematoxylin -eosin staining based analysis; format: organism-based; settings: in vivo, 600 h, time 25 day
[10] = Toxicity in BALB/c mouse implanted with mouse 4T1 cells assessed as effect on platelet count at 50 mg/kg, ip measured after 25 days by routine blood test; format: organism-based; settings: in vivo, 600 h, time 25 day
[11] = tested on: 4T1; test: Antitumor immunity against mouse 4T1 cells implanted in BALB/c mouse model assessed as downregulation of TGF-beta expression in mouse tumor by ELISA analysis; format: functional, cell-based
[12] = tested on: MDA-MB-231; test: Antitumor immunity against human MDA-MB-231 cells xenografted in BALB/c nude mouse at 50 mg/kg, ip measured after 28 days; format: functional, organism-based; settings: time 28.0 day
[13] = tested on: MDA-MB-231; test: Antitumor activity against human MDA-MB-231 cells xenografted in BALB/c nude mouse assessed as reduction in HK2 expression level at 50 mg/kg, ip measured after 28 days; format: functional, organism-based; settings: time 28.0 day
[14] = Toxicity in BALB/c mouse implanted with mouse 4T1 cells assessed as effect on hematocrit level at 50 mg/kg, ip measured after 25 days in presence of cisplatin by routine blood test; format: organism-based; settings: in vivo, 600 h, time 25 day
[15] = Toxicity in BALB/c mouse implanted with mouse 4T1 cells assessed as effect on mean corpuscular volume at 50 mg/kg, ip measured after 25 days in presence of cisplatin by routine blood test; format: organism-based; settings: in vivo, 600 h, time 25 day
[16] = Toxicity in BALB/c mouse implanted with mouse 4T1 cells assessed as effect on mean corpuscular hemoglobin concentration at 50 mg/kg, ip measured after 25 days in presence of cisplatin by routine blood test; format: organism-based; settings: in vivo, 600 h, time 25 day

## O=C1CCC(N2C(=O)c3cccc(NCCCCNC(=O)c4nn(Cc5ccc(Cl)cc5Cl)c5ccccc45)c3C2=O)C(=O)N1 (stereo unspecified)
[1]
  Activity: Active
[2]
  Activity: Dose-Dependent Effect
[3]
  Activity: Dose-Dependent Effect
[4]
  inhibition: Active
[5]
  Activity: Active
[6]
  Activity: Active
[7]
  Activity: Active
[8]
  Activity: Active
[9]
  Activity: Non-Toxic
[10]
  Activity: Non-Toxic
[11]
  Activity: Active
[12]
  Activity: inactive
[13]
  Activity: Active
[14]
  Activity: Non-Toxic
[15]
  Activity: Non-Toxic
[16]
  Activity: Non-Toxic
